Source: patent publication US8013006B2

Legend:
HCV replicon = experiment: microbe, parasite or virus in culture; format: cell-based; details: Hepatitis C virus, 48 h, read-out: Replicon IC5Os

| Compound | IC50 (HCV replicon) | melting point |
| --- | --- | --- |
| CCOc1ccc2c(C#N)c(-c3ccc(NS(=O)(=O)CC)cc3)n(CC)c2c1 [Compound 416] | < 500 nM | 173 to 175 °C |
| CCCn1c(-c2ccc(NS(=O)(=O)CC)cc2)c(C#N)c2ccc(OCC)cc21 [Compound 418] | < 500 nM | 183 to 184 °C |
| CCn1c(-c2ccc(NC(C)=O)cc2)c(C#N)c2ccc(C(F)(F)F)cc21 [Compound 420] | 500 to 2000 nM | 241 to 243 °C |
| CCC(=O)Nc1ccc(-c2c(C#N)c3ccc(C(F)(F)F)cc3n2CC)cc1 [Compound 422] | 500 to 2000 nM | 259 to 261 °C |
| CCn1c(-c2ccc(S(=O)(=O)NC)cc2)c(C#N)c2cc(Cl)ccc21 [Compound 430] | 500 to 2000 nM | 180 to 186 °C |
| CCn1c(-c2ccc(N/C(C)=C/C#N)cc2)c(C#N)c2ccc(OC)cc21 [Compound 456] | 500 to 2000 nM | 157 to 159 °C |
| CCn1c(-c2ccc(S(N)(=O)=O)cc2)c(C#N)c2cc(-c3cccc(OC)c3)ccc21 [Compound 461] | < 500 nM | 200 to 205 °C |
| CCn1c(-c2ccc(S(=O)(=O)NC)cc2)c(C#N)c2cc(-c3cccc(OC)c3)ccc21 [Compound 462] | < 500 nM | 135 to 140 °C |
| CCOc1ccc2c(C#N)c(-c3ccc(NS(=O)(=O)CC)cc3)n(CC(C)C)c2c1 [Compound 470] | < 500 nM | 178 to 180 °C |
| CCOc1ccc2c(C#N)c(-c3ccc(NS(C)(=O)=O)cc3)n(CC(C)C)c2c1 [Compound 471] | < 500 nM | 154 to 156 °C |
| CCOc1ccc2c(C#N)c(-c3ccc(NS(C)(=O)=O)cc3)n(C3CCC3)c2c1 [Compound 472] | < 500 nM | 215 to 217 °C |
| CCOc1ccc2c(C#N)c(-c3ccc(NS(=O)(=O)CC)cc3)n(C3CCC3)c2c1 [Compound 473] | < 500 nM | 189 to 191 °C |
| CCn1c(-c2ccc(NS(C)(=O)=O)cc2)c(C#N)c2ccc(OCCCl)cc21 [Compound 477] | < 500 nM | 194 to 195 °C |
| CCn1c(-c2ccc(NS(C)(=O)=O)cc2)c(C#N)c2ccc(OCCN3CCSCC3)cc21 [Compound 480] | < 500 nM | 207 to 208 °C |
| CCCS(=O)(=O)Nc1ccc(-c2c(C#N)c3ccc(OCCCl)cc3n2CC)cc1 [Compound 495] | 500 to 2000 nM | 126 to 128 °C |
| CCn1c(-c2ccc(NS(C)(=O)=O)cc2)c(C#N)c2ccc(OCCN(C)C)cc21 [Compound 498] | 500 to 2000 nM | 192 to 194 °C |
| CCn1c(-c2ccc(NS(=O)(=O)CC)cc2)cc2ccc(OC(F)F)cc21 [Compound 516, ethanesulfonic acid [4-(6-difluoromethoxy-1-ethyl-1H-iodo-2-yl)-phenyl]-amide] | 500 to 2000 nM | 155 to 156 °C |
| Cn1c(-c2ccc(NS(C)(=O)=O)cc2)c(C#N)c2ccc(OC(F)F)cc21 [Compound 518] | 500 to 2000 nM | 197 to 199 °C |
| CCn1c(-c2ccc(NS(=O)(=O)CC)cc2)c(C#N)c2ccc(OC(F)F)cc21 [Compound 520] | < 500 nM | 175 to 177 °C |
| CCCn1c(-c2ccc(NS(C)(=O)=O)cc2)c(C#N)c2ccc(OC(F)F)cc21 [Compound 521] | < 500 nM | 184 to 186 °C |
| CC(C)n1c(-c2ccc(NS(C)(=O)=O)cc2)c(C#N)c2ccc(OC(F)F)cc21 [Compound 523] | < 500 nM | 190 to 192 °C |

| Compound | IC50 (HCV replicon) | melting point |
| --- | --- | --- |
| CCn1c(-c2cccc(NS(=O)(=O)NC(C)C)c2)c(C#N)c2ccc(OC)cc21 [Compound 542] | 500 to 2000 nM | 186 to 188 °C |
| CCn1c(-c2ccc(N)cc2)c(C#N)c2ccc(OCCF)cc21 [Compound 543] | 500 to 2000 nM | 197 to 200 °C |
| CCn1c(-c2ccc(NC(=O)C3CC3)cc2)c(C#N)c2ccc(OCCF)cc21 [Compound 544] | < 500 nM | 263 to 265 °C |
| CCn1c(-c2ccc(NC(=O)OC)cc2)c(C#N)c2ccc(OCCF)cc21 [Compound 545] | 500 to 2000 nM | 203 to 205 °C |
| CCOC(=O)Nc1ccc(-c2c(C#N)c3ccc(OCCF)cc3n2CC)cc1 [Compound 546] | < 500 nM | 208 to 210 °C |
| CCn1c(-c2ccc(NS(C)(=O)=O)cc2)c(C#N)c2ccc(OCCF)cc21 [Compound 548] | 500 to 2000 nM | 171 to 174 °C |
| CCn1c(-c2ccc(NS(=O)(=O)CC)cc2)c(C#N)c2ccc(OCCF)cc21 [Compound 549] | < 500 nM | 150 to 153 °C |
| CCCS(=O)(=O)Nc1ccc(-c2c(C#N)c3ccc(OCCF)cc3n2CC)cc1 [Compound 550] | 500 to 2000 nM | 183 to 185 °C |
| CCn1c(-c2ccc(NS(=O)(=O)CCCCl)cc2)c(C#N)c2ccc(OCCF)cc21 [Compound 551] | 500 to 2000 nM | 187 to 190 °C |
| CCn1c(-c2ccc(NS(=O)(=O)C3CC3)cc2)c(C#N)c2ccc(OCCF)cc21 [Compound 552] | < 500 nM | 185 to 188 °C |
| CCCS(=O)(=O)Nc1cccc(-c2c(C#N)c3ccc(C(F)(F)F)cc3n2CC)c1 [Compound 563] | 500 to 2000 nM | 210 to 212 °C |
| CCn1c(-c2ccc(NC(=O)C3CCC3)cc2)c(C#N)c2ccccc21 [Compound 567] | 500 to 2000 nM | 238.2 to 238.6 °C |
| CCn1c(-c2ccc(C(=O)NC(C)C)cc2)c(C#N)c2cc(OC)ccc21 [Compound 570] | 500 to 2000 nM | 220 to 222 °C |
| CCS(=O)(=O)Nc1ccc(-c2c(C#N)c3cc(OC)ccc3n2C)cc1 [Compound 580] | < 500 nM | 198 to 200 °C |
| CCCS(=O)(=O)Nc1ccc(-c2c(C#N)c3cc(Cl)ccc3n2CC)cc1 [Compound 601] | < 500 nM | 195 to 200 °C |
| CCn1c(-c2ccc(NS(=O)(=O)C3CC3)cc2)c(C#N)c2cc(Cl)ccc21 [Compound 602] | < 500 nM | 179 to 184 °C |
| CCCOC(=O)Nc1cccc(-c2c(C#N)c3cc(N4CCOCC4)ccc3n2CC)c1 [Compound 606] | < 500 nM | 166 to 170 °C |
| CCn1c(-c2cccc(NC(=O)OCCOC)c2)c(C#N)c2cc(N3CCOCC3)ccc21 [Compound 607] | < 500 nM | 189 to 194 °C |
| COc1ccc2c(C#N)c(-c3ccc(NS(C)(=O)=O)cc3)n(CC3CC3)c2c1 [Compound 611] | 500 to 2000 nM | 126 to 128 °C |
| CCS(=O)(=O)Nc1ccc(-c2c(C#N)c3ccc(OC)cc3n2CC2CC2)cc1 [Compound 612] | 500 to 2000 nM | 198 to 200 °C |
| CS(=O)(=O)Nc1ccc(-c2c(C#N)c3ccc(OC(F)F)cc3n2CC2CC2)cc1 [Compound 613] | < 500 nM | 198 to 200 °C |

| Compound | IC50 (HCV replicon) | melting point |
| --- | --- | --- |
| CCS(=O)(=O)Nc1ccc(-c2c(C#N)c3ccc(OC(F)F)cc3n2CC2CC2)cc1 [Compound 614] | < 500 nM | 176 to 177 °C |
| CCCCS(=O)(=O)Nc1ccc(-c2c(C#N)c3cc(Cl)ccc3n2CC)cc1 [Compound 616] | < 500 nM | 143 to 149 °C |
| CCn1c(-c2ccc(NS(=O)(=O)CCCCl)cc2)c(C#N)c2cc(Cl)ccc21 [Compound 617] | < 500 nM | 164 to 167 °C |
| CCOC(=O)Nc1ccc(-c2c(C#N)c3cc(Cl)ccc3n2CC)cc1 [Compound 618] | < 500 nM | 205 to 211 °C |
| CCCOC(=O)Nc1ccc(-c2c(C#N)c3cc(Cl)ccc3n2CC)cc1 [Compound 619] | 500 to 2000 nM | 201 to 206 °C |
| CCCn1c(-c2ccc(NS(=O)(=O)CCC)cc2)c(C#N)c2ccc(OC)cc21 [Compound 621] | 500 to 2000 nM | 187 to 188 °C |
| CCCn1c(-c2ccc(NS(=O)(=O)C(C)C)cc2)c(C#N)c2ccc(OC)cc21 [Compound 622] | 500 to 2000 nM | 182 to 183 °C |
| CCCn1c(-c2ccc(NS(=O)(=O)Cc3ccccc3)cc2)c(C#N)c2ccc(OC)cc21 [Compound 623] | 500 to 2000 nM | 217 to 218 °C |
| CCCn1c(-c2ccc(NC(=O)NCC)cc2)c(C#N)c2ccc(OC)cc21 [Compound 626] | 500 to 2000 nM | 193 to 194 °C |
| CCCNC(=O)Nc1ccc(-c2c(C#N)c3cc(Cl)ccc3n2CC)cc1 [Compound 628] | 500 to 2000 nM | 221 to 226 °C |
| CCS(=O)(=O)Nc1ccc(-c2c(C#N)c3cc(Cl)ccc3n2CCC(C)C)cc1 [Compound 631] | 500 to 2000 nM | 177 to 182 °C |
| C=Cn1c(-c2ccc(NS(=O)(=O)CC)cc2)c(C#N)c2ccc(OC)cc21 [Compound 633] | 500 to 2000 nM | 159 to 161 °C |
| C=Cn1c(-c2ccc(NS(=O)(=O)C3CC3)cc2)c(C#N)c2ccc(OC)cc21 [Compound 635] | < 500 nM | 200 to 201 °C |
| CCCn1c(-c2ccc(NC(=O)OC(C)C)cc2)c(C#N)c2ccc(OC)cc21 [Compound 641] | 500 to 2000 nM | 177 to 178 °C |
| CCn1c(-c2ccc(CNS(C)(=O)=O)cc2)c(C#N)c2ccc(OC)cc21 [Compound 650] | 500 to 2000 nM | 165 to 166 °C |
| CCn1c(-c2ccc(N(C)S(=O)(=O)CCl)cc2)c(C#N)c2ccc(OC)cc21 [Compound 652] | < 500 nM | 191 to 194 °C |
| CCCOc1ccc2c(C#N)c(-c3ccc(N4CCCS4(=O)=O)cc3)n(CC)c2c1 [Compound 667] | < 500 nM | 242 to 244 °C |
| CCn1c(-c2ccc(NS(=O)(=O)CC)cc2)c(C#N)c2ccc(OCc3cccnc3)cc21 [Compound 669] | < 500 nM | 213 to 215 °C |
| CCn1c(-c2ccc(NS(=O)(=O)C3CC3)cc2)c(C#N)c2ccc(OCc3cccnc3)cc21 [Compound 670] | < 500 nM | 231 to 233 °C |
